Assay results as given in ChEMBL document CHEMBL1201862, “PubChem BioAssay data set” (2004).
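Grown in 96-well plates, cells were treated for 48 hours with each compound at five concentrations. Insufficient inhibition: endpoint recorded as highest concentration tested. Abbreviation: GI50, concentration required for 50% inhibition of growth.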 Active and inactive are the calls of the source. No stated cut-off is given here; in the data, active = GI50 up to about 1.1 µM and inactive = higher.

What was measured:
Test in all cases: growth of human tumour cells (NCI), 48 h
[1] = tested on: KM12
[2] = tested on: A549
[3] = tested on: EKVX
[4] = tested on: NCI-H522
[5] = tested on: SK-OV-3
[6] = tested on: M14
[7] = tested on: NCI-H460
[8] = tested on: NCI/ADR-RES
[9] = tested on: UACC-62
[10] = tested on: SNB-75
[11] = tested on: SN12C
[12] = tested on: RPMI-8226
[13] = tested on: COLO 205
[14] = tested on: Hs-578T
[15] = tested on: MDA-MB-231
[16] = tested on: UO-31
[17] = tested on: OVCAR-3
[18] = tested on: 786-0
[19] = tested on: MOLT-4
[20] = tested on: RXF 393

In the case of `N#CC(CC(=O)O)=C(c1ccccc1)c1ccccc1`, the GI50 [1] is reported as > 100 µM (inactive), the GI50 [2] is reported as > 100 µM (inactive) and the GI50 [3] is reported as > 100 µM (inactive). The GI50 [4] was > 100 µM (inactive), the GI50 [5] was > 100 µM (inactive) and the GI50 [6] was > 100 µM (inactive). For the same compound, the GI50 [7] was > 100 µM (inactive), the GI50 [8] was > 100 µM (inactive) and the GI50 [9] was > 100 µM (inactive). The GI50 [10] was > 100 µM (inactive), the GI50 [11] was > 100 µM (inactive) and the GI50 [12] was > 100 µM (inactive). The GI50 [13] was > 100 µM (inactive), the GI50 [14] was 70.1 µM (inactive) and the GI50 [15] was > 100 µM (inactive). For the same compound, the GI50 [16] was > 100 µM (inactive), the GI50 [17] was > 100 µM (inactive) and the GI50 [18] was > 100 µM (inactive).

In the case of `N#CCCN(CCC#N)c1ccc(/C=C2\N=C(c3ccccc3)N(c3ccccc3)C2=O)cc1`, the GI50 [1] is reported as > 100 µM (inactive), the GI50 [2] is reported as > 100 µM (inactive) and the GI50 [3] is reported as > 100 µM (inactive). For the same compound, the GI50 [4] was 18.7 µM (inactive), the GI50 [5] was > 100 µM (inactive) and the GI50 [6] was > 100 µM (inactive). The GI50 [7] was 2.1 µM (inactive), the GI50 [19] was 8.59 µM (inactive) and the GI50 [8] was > 100 µM (inactive). The GI50 [9] was > 100 µM (inactive), the GI50 [11] was > 100 µM (inactive) and the GI50 [12] was 8.36 µM (inactive). The GI50 [13] was 9.38 µM (inactive), the GI50 [20] was > 100 µM (inactive) and the GI50 [14] was 19.3 µM (inactive). The GI50 [15] was > 100 µM (inactive), the GI50 [16] was > 100 µM (inactive) and the GI50 [17] was > 100 µM (inactive). For the same compound, the GI50 [18] was 17 µM (inactive).

For `CCCCOCCOCCOC1=C(Cl)C(=O)c2c(O)ccc(O)c2C1=O`, the GI50 [1] was 1.79 µM (inactive), the GI50 [2] was 1.85 µM (inactive) and the GI50 [3] was 2.57 µM (inactive). For the same compound, the GI50 [5] was 4.25 µM (inactive), the GI50 [6] was 0.161 µM (active) and the GI50 [7] was 1.85 µM (inactive). The GI50 [19] was 0.0138 µM (active), the GI50 [8] was 1.97 µM (inactive) and the GI50 [9] was 0.8 µM (active). For the same compound, the GI50 [10] was 0.382 µM (active), the GI50 [11] was 1.61 µM (inactive) and the GI50 [12] was 0.212 µM (active). The GI50 [13] was 0.259 µM (active), the GI50 [20] was 0.809 µM (active) and the GI50 [14] was 2.4 µM (inactive). For the same compound, the GI50 [15] was 0.488 µM (active), the GI50 [16] was 1.35 µM (inactive) and the GI50 [17] was 0.877 µM (active). For the same compound, the GI50 [18] was 1.79 µM (inactive).

For `CO/N=C(\C)c1cccc(Nc2c3ccccc3nc3occc23)c1`, the GI50 [1] was 8.81 µM (inactive), the GI50 [2] was 11.7 µM (inactive) and the GI50 [3] was 11.1 µM (inactive). The GI50 [4] was 3.66 µM (inactive), the GI50 [5] was 14.4 µM (inactive) and the GI50 [6] was 8.97 µM (inactive). For the same compound, the GI50 [7] was 5.81 µM (inactive), the GI50 [19] was 4.63 µM (inactive) and the GI50 [8] was 4.12 µM (inactive). The GI50 [9] was 7.55 µM (inactive), the GI50 [11] was 16 µM (inactive) and the GI50 [12] was 4.36 µM (inactive). For the same compound, the GI50 [13] was 5.24 µM (inactive), the GI50 [20] was 0.0454 µM (active) and the GI50 [14] was 17 µM (inactive). The GI50 [15] was 9.79 µM (inactive), the GI50 [16] was 12.8 µM (inactive) and the GI50 [17] was 4.72 µM (inactive). For the same compound, the GI50 [18] was 14.7 µM (inactive).

For `COC(=O)C1=CO[C@@H](OC2OC(CO)C(O)C(O)C2O)[C@H]2[C@@H](C)[C@@H](O)[C@@H](O)[C@@H]12` (stereo partly drawn), the GI50 [1] was > 100 µM (inactive), the GI50 [2] was > 100 µM (inactive) and the GI50 [3] was > 100 µM (inactive). The GI50 [4] was > 100 µM (inactive), the GI50 [5] was > 100 µM (inactive) and the GI50 [6] was > 100 µM (inactive). The GI50 [19] was > 100 µM (inactive), the GI50 [8] was > 100 µM (inactive) and the GI50 [9] was > 100 µM (inactive). For the same compound, the GI50 [10] was > 100 µM (inactive), the GI50 [11] was > 100 µM (inactive) and the GI50 [12] was > 100 µM (inactive). The GI50 [13] was > 100 µM (inactive), the GI50 [20] was > 100 µM (inactive) and the GI50 [14] was > 100 µM (inactive). The GI50 [15] was > 100 µM (inactive), the GI50 [16] was > 100 µM (inactive) and the GI50 [17] was > 100 µM (inactive). For the same compound, the GI50 [18] was > 100 µM (inactive).

In the case of `CC(C)c1cc(C(C)C)c(Cl)c(Cl)c1O.CC(C)c1cc(Cl)c(O)c(C(C)C)c1Cl`, the GI50 [1] is reported as 24.4 µM (inactive), the GI50 [2] is reported as 40.2 µM (inactive) and the GI50 [3] is reported as 20.5 µM (inactive). For the same compound, the GI50 [4] was 14 µM (inactive), the GI50 [6] was 71.8 µM (inactive) and the GI50 [7] was 30 µM (inactive). For the same compound, the GI50 [8] was 32.8 µM (inactive), the GI50 [9] was 19.6 µM (inactive) and the GI50 [11] was 22.4 µM (inactive). The GI50 [12] was 20.4 µM (inactive), the GI50 [13] was 20.2 µM (inactive) and the GI50 [20] was 12.5 µM (inactive). The GI50 [14] was 16.6 µM (inactive), the GI50 [15] was 20.1 µM (inactive) and the GI50 [16] was 23.2 µM (inactive). The GI50 [17] was 24.5 µM (inactive) and the GI50 [18] was 34.5 µM (inactive).

In the case of `CCC(=O)N(c1ccccc1)C(C)CN1CCC(O)(c2cccc(C(F)(F)F)c2)CC1` (stereo not drawn), the GI50 [1] is reported as 35.2 µM (inactive), the GI50 [2] is reported as 39 µM (inactive) and the GI50 [3] is reported as 31.8 µM (inactive). The GI50 [4] was 20.2 µM (inactive), the GI50 [5] was 52.6 µM (inactive) and the GI50 [6] was 16.1 µM (inactive). The GI50 [19] was 17.9 µM (inactive), the GI50 [8] was 19.5 µM (inactive) and the GI50 [9] was 22.1 µM (inactive). For the same compound, the GI50 [10] was 32.8 µM (inactive), the GI50 [11] was 37.9 µM (inactive) and the GI50 [12] was 18.7 µM (inactive). The GI50 [13] was 14.7 µM (inactive), the GI50 [20] was > 100 µM (inactive) and the GI50 [14] was 34.8 µM (inactive). The GI50 [15] was 21.6 µM (inactive), the GI50 [16] was 28.8 µM (inactive) and the GI50 [17] was 45.6 µM (inactive). For the same compound, the GI50 [18] was 18.5 µM (inactive).

With `Nn1c(-c2ccccc2)nn(C(=O)c2ccccc2)c1=O` the GI50 [1] was > 100 µM (inactive), the GI50 [2] was > 100 µM (inactive) and the GI50 [3] was > 100 µM (inactive). The GI50 [4] was > 100 µM (inactive), the GI50 [6] was > 100 µM (inactive) and the GI50 [7] was > 100 µM (inactive). The GI50 [19] was > 100 µM (inactive), the GI50 [8] was > 100 µM (inactive) and the GI50 [10] was > 100 µM (inactive). For the same compound, the GI50 [11] was 87.1 µM (inactive), the GI50 [12] was > 100 µM (inactive) and the GI50 [13] was > 100 µM (inactive). The GI50 [20] was > 100 µM (inactive), the GI50 [14] was > 100 µM (inactive) and the GI50 [15] was > 100 µM (inactive). The GI50 [16] was > 100 µM (inactive), the GI50 [17] was > 100 µM (inactive) and the GI50 [18] was > 100 µM (inactive).

`Cc1ccc(S[C@@](C=O)(NC(=O)OCc2ccccc2)C(F)(F)F)cc1` was tested, and the GI50 [1] was 20.8 µM (inactive), the GI50 [2] was 21.2 µM (inactive) and the GI50 [3] was 22.3 µM (inactive). For the same compound, the GI50 [5] was 45 µM (inactive), the GI50 [6] was 29.1 µM (inactive) and the GI50 [7] was 29.9 µM (inactive). For the same compound, the GI50 [19] was 21.5 µM (inactive), the GI50 [8] was 21.4 µM (inactive) and the GI50 [9] was 19.3 µM (inactive). For the same compound, the GI50 [10] was 22.5 µM (inactive), the GI50 [11] was 26.7 µM (inactive) and the GI50 [12] was 20.6 µM (inactive). For the same compound, the GI50 [13] was 17 µM (inactive), the GI50 [20] was 14.4 µM (inactive) and the GI50 [14] was 44.3 µM (inactive). For the same compound, the GI50 [15] was 19.6 µM (inactive), the GI50 [16] was 15.6 µM (inactive) and the GI50 [17] was 42 µM (inactive). The GI50 [18] was 20.4 µM (inactive).

`Nc1n[n+]([O-])c2ccc(Cl)cc2[n+]1[O-]` was tested, and the GI50 [1] was 16.1 µM (inactive), the GI50 [2] was 20.4 µM (inactive) and the GI50 [3] was 32.2 µM (inactive). For the same compound, the GI50 [4] was 15.3 µM (inactive), the GI50 [5] was 16.7 µM (inactive) and the GI50 [6] was 17.1 µM (inactive). For the same compound, the GI50 [19] was 14.7 µM (inactive), the GI50 [8] was 36.3 µM (inactive) and the GI50 [9] was > 10 µM (inactive). For the same compound, the GI50 [10] was 4.66 µM (inactive), the GI50 [11] was 32.1 µM (inactive) and the GI50 [12] was 14.7 µM (inactive). The GI50 [13] was 12.8 µM (inactive), the GI50 [20] was 18.4 µM (inactive) and the GI50 [14] was 13.9 µM (inactive). The GI50 [15] was 32 µM (inactive), the GI50 [16] was 27.6 µM (inactive) and the GI50 [18] was 31.7 µM (inactive).

With `COc1cc2oc(=O)ccc2cc1CC=C(C)C` [SUBEROSIN] the GI50 [1] was 36.9 µM (inactive), the GI50 [2] was 46.8 µM (inactive) and the GI50 [3] was 5.81 µM (inactive). The GI50 [4] was 42.3 µM (inactive), the GI50 [6] was > 10 µM (inactive) and the GI50 [7] was 50.8 µM (inactive). The GI50 [19] was 28.8 µM (inactive), the GI50 [8] was 22.9 µM (inactive) and the GI50 [10] was 41.1 µM (inactive). The GI50 [11] was 47.6 µM (inactive), the GI50 [12] was 19.5 µM (inactive) and the GI50 [13] was 43.4 µM (inactive). For the same compound, the GI50 [20] was 16.9 µM (inactive), the GI50 [14] was 35.4 µM (inactive) and the GI50 [15] was 50.2 µM (inactive). For the same compound, the GI50 [16] was 21.9 µM (inactive), the GI50 [17] was 59.7 µM (inactive) and the GI50 [18] was > 10 µM (inactive).
